In US20260140098A1, “METHOD FOR TREATING PLASMA SAMPLE CONTAINING (7aS,2'S)-2-OXO-CLOPIDOGREL AND METHOD FOR DETERMINING THE SAME” (CHENGDU SHIBEIKANG BIOMEDICAL TECHNOLOGY CO., LTD., priority 2021, published 2026):
Read-outs that look alike come from different tables or passages of the source.

Test: Stability of (7aS,2′S)-2-oxo-clopidogrel in plasma at −80° C., screening of reducing agent type (Example 5)
Format: in vitro ADME
Conditions: for recovery at 0 day, 0.1 ng/mL / recovery at 10 day, 0.1 ng/mL / recovery at 30 day, 0.1 ng/mL / recovery at 60 day, 0.1 ng/mL: theoretical 0.1 ng/mL; for recovery at 0 day, 0.1 ng/mL / recovery at 0 day, 12 ng/mL: day 0, read-out: Recovery rate; for recovery at 10 day, 0.1 ng/mL / recovery at 10 day, 12 ng/mL: day 10, read-out: Recovery rate; for recovery at 30 day, 0.1 ng/mL / recovery at 30 day, 12 ng/mL: day 30, read-out: Recovery rate; for recovery at 60 day, 0.1 ng/mL / recovery at 60 day, 12 ng/mL: day 60, read-out: Recovery rate; for recovery at 0 day, 12 ng/mL / recovery at 10 day, 12 ng/mL / recovery at 30 day, 12 ng/mL / recovery at 60 day, 12 ng/mL: theoretical 12.0 ng/mL
Protocol: S2. Plasma sample pre-treatment: taking 100 μl of the plasma, adding 5 μl of an internal standard working solution and 300 μl of acetonitrile respectively; after vortex mixing, centrifuging at 2-8° C. and 10,000 r/min for 10 min, and collecting the supernatant for later use.
S3. LC-MS/MS analysis: injecting 10 μl of the supernatant prepared from step S2 for determination, where the liquid chromatography conditions are: • the chromatographic column is Kinetex® 1.7 μm C18 100 A 100×2.1 mm; the column temperature is 40° C.; the mobile phase is acetonitrile-0.2% aqueous formic acid solution with a flow rate of 0.2 ml/min; and a gradient elution is carried out as specified in the table below:
ESI ion source, positive ion detection in multiple reaction monitoring mode (MRM); the quantitatively analyzed ions (7aS,2′S)-2-oxo-clopidogrel: m/z 338.100→155.000, IS: m/z 341.100→158.000, a capillary voltage of 4.0 KV, a cone voltage of 25 V, a desolvation gas temperature of 400° C. and a source temperature of 150° C. The optimal collision energy is 20 eV.
Blank plasma was taken and different antioxidants (DTT, TCEP, ME) were added to prepare plasma containing an antioxidant at a concentration of 100 mg/ml. Subsequently, standard series solution of (7aS,2′S)-2-oxo-clopidogrel was added separately to prepare quality control samples with two concentrations of (7aS,2′S)-2-oxo-clopidogrel (0.1 and 12.0 ng/ml), 3 samples for each concentration. They were placed in a refrigerator at −80° C., and the plasma samples at different placing time points were taken to examine the stability by pre-treating the plasma samples according to the method of S2 of Example 1, followed by LC/MS/MS determination according to the method of S3.

[1] = blank plasma containing DTT 100 mg/ml, DTT 100 mg/ml
[2] = blank plasma containing ME 100 mg/ml, ME 100 mg/ml
[3] = blank plasma containing TCEP 100 mg/ml, TCEP 100 mg/ml

Structure (SMILES): COC(=O)[C@H](c1ccccc1Cl)N1CC[C@@H]2SC(=O)C=C2C1 [(7aS,2′S)-2-oxo-clopidogrel, methyl(S)-2-(2-chlorophenyl)-2-((S)-2-oxo-2,6,7,7a-tetrahydrothieno[3,2-c]pyridin-5 (4H)-yl)acetate]
- recovery at 0 day, 0.1 ng/mL [1]: 102%
- recovery at 10 day, 0.1 ng/mL [1]: 103%
- recovery at 30 day, 0.1 ng/mL [1]: 95.5%
- recovery at 0 day, 0.1 ng/mL [2]: 102%
- recovery at 10 day, 0.1 ng/mL [2]: 101%
- recovery at 30 day, 0.1 ng/mL [2]: 91.5%
- recovery at 60 day, 0.1 ng/mL [2]: 86.6%
- recovery at 0 day, 12 ng/mL [2]: 101%
- recovery at 10 day, 12 ng/mL [2]: 99.2%
- recovery at 30 day, 12 ng/mL [2]: 96.5%
- recovery at 60 day, 12 ng/mL [2]: 87.9%
- recovery at 60 day, 0.1 ng/mL [3]: 101%
- recovery at 0 day, 12 ng/mL [3]: 101%
- recovery at 10 day, 12 ng/mL [3]: 100%
- recovery at 30 day, 12 ng/mL [3]: 102%
- recovery at 60 day, 12 ng/mL [3]: 101%
- recovery at 60 day, 0.1 ng/mL (plasma, DTT 100 mg/ml): 89.9%
- recovery at 0 day, 12 ng/mL (plasma, DTT 100 mg/ml): 101%
- recovery at 10 day, 12 ng/mL (plasma, DTT 100 mg/ml): 100%
- recovery at 30 day, 12 ng/mL (plasma, DTT 100 mg/ml): 98.9%
- recovery at 60 day, 12 ng/mL (plasma, DTT 100 mg/ml): 92.4%
- recovery at 0 day, 0.1 ng/mL (plasma, TCEP 100 mg/ml): 102%
- recovery at 10 day, 0.1 ng/mL (plasma, TCEP 100 mg/ml): 105%
- recovery at 30 day, 0.1 ng/mL (plasma, TCEP 100 mg/ml): 99.3%
- Stability of plasma samples (in words) (with TCEP compared with DTT and ME, 100 mg/ml): better than that of the plasma samples with DTT and ME
